The values below come from US20210270813A1, “KIT, METHOD FOR SCREENING AN ACTIVE COMPOUND IN VITRO AND USES OF A KIT” (L'OREAL, priority 2018, published 2021).

The subject of the test is neurites emerging from the neurospheres. The experiment in a line: Maximum extension of neurites emerging from neurospheres in modified co-culture microdevice. Format: cell-based, human. Particulars: NGF added or not to the matrigel in the middle punched hole; 3N medium or 75% CM plus HEKn; FIG. 14C. The method, then:
Keratinocytes moved faster than the dendrites and since removing the microdevice sometimes meant that neurospheres were pulled from the substrate, a hole between the wells of the same pair was punched and the keratinocytes were placed within this hole (FIG. 13A, red arrow). The region where there was a predominance of migrating neurites was observed and the highest migration radius was measured (FIG. 13B, blue arrow).
To further test this modified co-culture microdevice, the culture media (3N versus 75% CM from HEKn) and the presence (or not) of matrigel in the middle hole were compared by measuring the maximum extension of the neurites emerging from the neurospheres (FIG. 14A). There were no statistically significant differences. Then, the extension of neurites in the presence or absence of keratinocytes in the hole were compared. Again, no differences were observed (FIG. 14B). Finally, another variable was tested: adding NGF or not to the matrigel in the middle punched hole.

For the substance nerve growth factor [NGF], the “maximum extension of the neurites (neurite migration)” value is “trend of NGF to increase migration”.
